Measured values from the supplement of paper PMC10307832.

Key:
Test in all cases: relative viability (nuclei count vs DMSO), 5 days (fraction); higher = more cells survive
[1] = tested on: ChaGo-K-1
In short: (§1)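 A single step with final 0.05% Triton X-100, 1% formaldehyde and 1 ug/ml Hoechst fixed the cells and stained nuclei 5 days after treatment. Lung cancer cell lines in 1536-well plates had been treated by pin tool the day after seeding with one drug alone or a fixed anchor-drug dose plus five library-drug doses (not always all listed) in √10 steps, and nuclei were counted on 4× images. Relative viability is the ratio of nuclei in treated wells to nuclei in vehicle wells, taken as the median of duplicate plates.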

[2] = tested on: EMC-BAC-2
In short: as §1

[3] = tested on: EPLC-272H
In short: as §1

[4] = tested on: H3255
In short: as §1

[5] = tested on: HCC-44
In short: as §1

[6] = tested on: HCC-827
In short: as §1

[7] = tested on: LCLC-103H
In short: as §1

[8] = tested on: LCLC-97TM1
In short: as §1

[9] = tested on: NCI-H1355
In short: as §1

[10] = tested on: NCI-H1395
In short: as §1

[11] = tested on: NCI-H1651
In short: as §1

[12] = tested on: NCI-H1793
In short: as §1

[13] = tested on: NCI-H1944
In short: as §1

[14] = tested on: NCI-H2023
In short: as §1

[15] = tested on: NCI-H2085
In short: as §1

[16] = tested on: NCI-H2087
In short: as §1

[17] = tested on: NCI-H2405
In short: as §1

[18] = tested on: NCI-H322M
In short: as §1

[19] = tested on: NCI-H520
In short: as §1

[20] = tested on: NCI-H650
In short: as §1

[21] = tested on: SK-MES-1
In short: as §1

[22] = tested on: UMC-11
In short: as §1

Q: What does the source list for `O=C(O)c1ccc(-c2c[nH]c3ncc(-c4ccccc4)cc23)cc1C1CCCC1` + O=C(c1cc(Cc2n[nH]c(=O)c3ccccc23)ccc1F)N1CCN(C(=O)C2CC2)CC1 [Olaparib] (partner 8 µM)?
A: relative viability ([1]; first compound 0.04 µM): 0.418; relative viability ([1]; first compound 0.1265 µM): 0.429; relative viability ([1]; first compound 0.4 µM): 0.401; relative viability ([1]; first compound 1.265 µM): 0.314; relative viability ([2]; first compound 0.04 µM): 0.453; relative viability ([2]; first compound 0.1265 µM): 0.506; relative viability ([2]; first compound 0.4 µM): 0.429; relative viability ([2]; first compound 1.265 µM): 0.368; relative viability ([3]; first compound 0.04 µM): 0.924; relative viability ([3]; first compound 0.1265 µM): 1.05; relative viability ([3]; first compound 0.4 µM): 0.566; relative viability ([3]; first compound 1.265 µM): 0.257; relative viability ([4]; first compound 0.04 µM): 0.574; relative viability ([4]; first compound 0.1265 µM): 0.57; relative viability ([4]; first compound 0.4 µM): 0.514; relative viability ([4]; first compound 1.265 µM): 0.507; relative viability ([5]; first compound 0.04 µM): 0.998; relative viability ([5]; first compound 0.1265 µM): 0.975; relative viability ([5]; first compound 0.4 µM): 0.975; relative viability ([5]; first compound 1.265 µM): 0.95; relative viability ([6]; first compound 0.04 µM): 0.559; relative viability ([6]; first compound 0.1265 µM): 0.714; relative viability ([6]; first compound 0.4 µM): 0.569; relative viability ([6]; first compound 1.265 µM): 0.398; relative viability ([7]; first compound 0.04 µM): 0.728; relative viability ([7]; first compound 0.1265 µM): 0.771; relative viability ([7]; first compound 0.4 µM): 0.758; relative viability ([7]; first compound 1.265 µM): 0.729; relative viability ([8]; first compound 0.04 µM): 0.435; relative viability ([8]; first compound 0.1265 µM): 0.54; relative viability ([8]; first compound 0.4 µM): 0.396; relative viability ([8]; first compound 1.265 µM): 0.258; relative viability ([9]; first compound 0.04 µM): 0.786; relative viability ([9]; first compound 0.1265 µM): 0.837; relative viability ([9]; first compound 0.4 µM): 0.666; relative viability ([9]; first compound 1.265 µM): 0.323; relative viability ([10]; first compound 0.04 µM): 0.473; relative viability ([10]; first compound 0.1265 µM): 0.495; relative viability ([10]; first compound 0.4 µM): 0.495; relative viability ([10]; first compound 1.265 µM): 0.444; relative viability ([11]; first compound 0.04 µM): 0.17; relative viability ([11]; first compound 0.1265 µM): 0.187; relative viability ([11]; first compound 0.4 µM): 0.176; relative viability ([11]; first compound 1.265 µM): 0.192; relative viability ([12]; first compound 0.04 µM): 0.878; relative viability ([12]; first compound 0.1265 µM): 1.03; relative viability ([12]; first compound 0.4 µM): 0.963; relative viability ([12]; first compound 1.265 µM): 0.512; relative viability ([13]; first compound 0.04 µM): 0.421; relative viability ([13]; first compound 0.1265 µM): 0.444; relative viability ([13]; first compound 0.4 µM): 0.412; relative viability ([13]; first compound 1.265 µM): 0.36; relative viability ([14]; first compound 0.04 µM): 0.475; relative viability ([14]; first compound 0.1265 µM): 0.485; relative viability ([14]; first compound 0.4 µM): 0.408; relative viability ([14]; first compound 1.265 µM): 0.238; relative viability ([15]; first compound 0.04 µM): 0.74; relative viability ([15]; first compound 0.1265 µM): 0.793; relative viability ([15]; first compound 0.4 µM): 0.746; relative viability ([15]; first compound 1.265 µM): 0.474; relative viability ([16]; first compound 0.04 µM): 0.686; relative viability ([16]; first compound 0.1265 µM): 0.597; relative viability ([16]; first compound 0.4 µM): 0.524; relative viability ([16]; first compound 1.265 µM): 0.342; relative viability ([17]; first compound 0.04 µM): 0.823; relative viability ([17]; first compound 0.1265 µM): 0.951; relative viability ([17]; first compound 0.4 µM): 0.778; relative viability ([17]; first compound 1.265 µM): 0.584; relative viability ([18]; first compound 0.04 µM): 0.856; relative viability ([18]; first compound 0.1265 µM): 0.718; relative viability ([18]; first compound 0.4 µM): 0.661; relative viability ([18]; first compound 1.265 µM): 0.554; relative viability ([19]; first compound 0.04 µM): 0.337; relative viability ([19]; first compound 0.1265 µM): 0.416; relative viability ([19]; first compound 0.4 µM): 0.348; relative viability ([19]; first compound 1.265 µM): 0.271; relative viability ([20]; first compound 0.04 µM): 0.372; relative viability ([20]; first compound 0.1265 µM): 0.432; relative viability ([20]; first compound 0.4 µM): 0.324; relative viability ([20]; first compound 1.265 µM): 0.256; relative viability ([21]; first compound 0.04 µM): 0.716; relative viability ([21]; first compound 0.1265 µM): 0.687; relative viability ([21]; first compound 0.4 µM): 0.58; relative viability ([21]; first compound 1.265 µM): 0.286; relative viability ([22]; first compound 0.04 µM): 0.366; relative viability ([22]; first compound 0.1265 µM): 0.307; relative viability ([22]; first compound 0.4 µM): 0.825; relative viability ([22]; first compound 1.265 µM): 0.398
